Measurements taken from the CheMixHub viscosity set.

Experiment: xn = mol fraction of the nth substance listed

CCCCC(CC)COP(=O)(O)OCC(CC)CCCC (stereo not given) + CC(=O)O
303.15 K, 101 kPa
Conditions | viscosity [mPa·s]
x1 = 0.0796 | 1.574
x1 = 0.1382 | 2.292
x1 = 0.2186 | 3.386
x1 = 0.3103 | 4.872
x1 = 0.3968 | 6.604
x1 = 0.4788 | 8.198
x1 = 0.5297 | 9.118
x1 = 0.6234 | 11.09
x1 = 0.6891 | 12.58
x1 = 0.7384 | 13.67
x1 = 0.8068 | 15.2
x1 = 0.8905 | 16.88
x1 = 0.9592 | 18.49

Cc1cccc(O)c1 + CC(=O)O
viscosity [mPa·s], 101 kPa
Conditions | x2 = 0.1684 | x2 = 0.313 | x2 = 0.4385 | x2 = 0.5485 | x2 = 0.6457 | x2 = 0.7321 | x2 = 0.8096 | x2 = 0.8794 | x2 = 0.9425
298.15 K | 8.835 | 6.522 | 5.086 | 4.131 | 3.438 | 2.895 | 2.425 | 1.996 | 1.602
308.15 K | 5.453 | 4.462 | 3.486 | 3.298 | 2.87 | 2.483 | 2.143 | 1.811 | 1.437
318.15 K | 4.444 | 3.818 | 3.302 | 2.942 | 2.618 | 2.31 | 1.945 | 1.625 | 1.22

Cc1cccc(O)c1 + CC(=O)c1ccccc1
303.15 K, 101 kPa
Conditions | viscosity [mPa·s]
x2 = 0.139 | 8.438
x2 = 0.1802 | 8.063
x2 = 0.27 | 7.268
x2 = 0.4388 | 5.843
x2 = 0.4644 | 5.63
x2 = 0.5506 | 4.927
x2 = 0.7407 | 3.39
x2 = 0.8321 | 2.684
x2 = 0.9266 | 2

C[N+](=O)[O-] + CC(C)(C)O
viscosity [mPa·s], 101.33 kPa
Conditions | 298.15 K | 303.15 K | 313.15 K
x2 = 0.05 | 0.609 | 0.569 | 0.511
x2 = 0.1002 | 0.611 | 0.567 | 0.506
x2 = 0.1502 | 0.642 | 0.573 | 0.508
x2 = 0.2 | 0.644 | 0.587 | 0.517
x2 = 0.2499 | 0.674 | 0.609 | 0.531
x2 = 0.3 | 0.749 | 0.638 | 0.549
x2 = 0.3503 | 0.793 | 0.672 | 0.573
x2 = 0.4 | 0.87 | 0.714 | 0.601
x2 = 0.4501 | 0.894 | 0.761 | 0.633
x2 = 0.5001 | 0.972 | 0.819 | 0.671
x2 = 0.55 | 1.072 | 0.886 | 0.717
x2 = 0.6001 | 1.154 | 0.962 | 0.811
x2 = 0.6499 | 1.219 | 1.057 | 0.829
x2 = 0.7 | 1.361 | 1.174 | 0.885
x2 = 0.75 | 1.557 | 1.32 | 0.966
x2 = 0.8 | 1.776 | 1.491 | 1.106
x2 = 0.85 | 2.079 | 1.72 | 1.244
x2 = 0.8999 | 2.51 | 2.05 | 1.442
x2 = 0.95 | 3.194 | 2.527 | 1.697

C[N+](=O)[O-] + CC(C)=O
298.15 K, 101 kPa
Conditions | viscosity [mPa·s]
x1 = 0.1326 | 0.356
x1 = 0.2566 | 0.3972
x1 = 0.3714 | 0.4352
x1 = 0.479 | 0.4701
x1 = 0.5797 | 0.5032
x1 = 0.6739 | 0.5325
x1 = 0.7631 | 0.5603
x1 = 0.8465 | 0.5855
x1 = 0.9257 | 0.6101

OCC1CC1 + CC(C)CC(C)(C)C
viscosity [mPa·s], 101 kPa
Conditions | x1 = 0.0991 | x1 = 0.1991 | x1 = 0.3007 | x1 = 0.4013 | x1 = 0.5 | x1 = 0.6004 | x1 = 0.7007 | x1 = 0.8004 | x1 = 0.9002
293.15 K | 0.535 | 0.592 | 0.676 | 0.801 | 0.97 | 1.214 | 1.561 | 2.068 | 2.803
298.15 K | 0.505 | 0.556 | 0.63 | 0.74 | 0.886 | 1.098 | 1.398 | 1.831 | 2.459
303.15 K | 0.476 | 0.522 | 0.587 | 0.684 | 0.811 | 0.997 | 1.257 | 1.632 | 2.168
308.15 K | 0.45 | 0.491 | 0.549 | 0.634 | 0.746 | 0.908 | 1.136 | 1.46 | 1.921
313.15 K | 0.425 | 0.462 | 0.514 | 0.59 | 0.688 | 0.831 | 1.029 | 1.31 | 1.709
318.15 K | 0.396 | 0.431 | 0.478 | 0.546 | 0.633 | 0.759 | 0.934 | 1.181 | 1.527
323.15 K | 0.38 | 0.411 | 0.454 | 0.514 | 0.59 | 0.701 | 0.854 | 1.071 | 1.372

C[N+](=O)[O-] + CC(C)CO
298.15 K, 101 kPa
Conditions | viscosity [mPa·s]
x1 = 0.1592 | 2.304
x1 = 0.2992 | 1.779
x1 = 0.4225 | 1.382
x1 = 0.5327 | 1.108
x1 = 0.6306 | 0.9667
x1 = 0.7193 | 0.822
x1 = 0.7993 | 0.7537
x1 = 0.8724 | 0.7066
x1 = 0.9387 | 0.6682

ClC1CCCCC1 + CC(C)CO
viscosity [mPa·s], 101.33 kPa
Conditions | x1 = 0.1018 | x1 = 0.2015 | x1 = 0.3066 | x1 = 0.4073 | x1 = 0.5034 | x1 = 0.5996 | x1 = 0.7053 | x1 = 0.8003 | x1 = 0.8949
298.15 K | 2.771 | 2.342 | 2.035 | 1.835 | 1.687 | 1.597 | 1.525 | 1.5 | 1.5
313.15 K | 1.784 | 1.555 | 1.393 | 1.284 | 1.223 | 1.181 | 1.146 | 1.132 | 1.144
